# Experimental data from ChEMBL document CHEMBL5518195, “N-(Heteroaryl)thiophene sulfonamides as angiotensin AT2 receptor ligands” (Eur J Med Chem, 2024).
# Legend:
# [1] = biological target: T1, Type-2 angiotensin II receptor (Homo sapiens, UniProt P50052); assay: Displacement of [125I][Sar1 Ile8]-angiotensin II binding to human AT2R expressed in HEK293 cells; assay type: cell-based
# T1 sequence (P50052 whole entry): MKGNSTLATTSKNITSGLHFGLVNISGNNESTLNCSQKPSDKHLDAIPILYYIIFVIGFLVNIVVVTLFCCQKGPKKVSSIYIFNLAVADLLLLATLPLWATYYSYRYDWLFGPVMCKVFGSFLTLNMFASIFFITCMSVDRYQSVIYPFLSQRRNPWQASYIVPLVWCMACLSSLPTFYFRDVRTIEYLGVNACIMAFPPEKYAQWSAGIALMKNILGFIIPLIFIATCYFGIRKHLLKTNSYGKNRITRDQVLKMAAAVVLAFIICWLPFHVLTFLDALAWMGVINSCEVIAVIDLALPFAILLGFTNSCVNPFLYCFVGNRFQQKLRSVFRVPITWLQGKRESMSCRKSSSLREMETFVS
# [2] = Stability in mouse liver microsomes assessed as half life at 1 uM in presence of NADPH by LC-MS/MS analysis; assay type: ADME, Microsome; details: time 60 min
# [3] = Stability in human liver microsomes assessed as half life at 1 uM in presence of NADPH by LC-MS/MS analysis; assay type: ADME, Microsome
# [4] = Efflux ratio of apparent permeability in human Caco-2 cells at 5 uM measured for 15 to 60 mins by LC-MS/MS analysis; assay type: ADME, cell-based; details: time 15-60 min
# [5] = Apparent permeability across apical to basal side in human Caco-2 cells at 5 uM measured for 15 to 60 mins by LC-MS/MS analysis; assay type: ADME, cell-based; details: time 15-60 min
# [6] = Stability in human hepatocytes assessed as half life at 1 uM by LC-MS/MS analysis; assay type: ADME, cell-based, Hepatocyte
# [7] = biological target: T2, Type-1 angiotensin II receptor (Homo sapiens, UniProt P30556); assay: Inhibition of [125I][Sar1 Ile8]-angiotensin II binding to human AT1R expressed in HEK293 cells; assay type: cell-based
# T2 sequence (P30556 whole entry): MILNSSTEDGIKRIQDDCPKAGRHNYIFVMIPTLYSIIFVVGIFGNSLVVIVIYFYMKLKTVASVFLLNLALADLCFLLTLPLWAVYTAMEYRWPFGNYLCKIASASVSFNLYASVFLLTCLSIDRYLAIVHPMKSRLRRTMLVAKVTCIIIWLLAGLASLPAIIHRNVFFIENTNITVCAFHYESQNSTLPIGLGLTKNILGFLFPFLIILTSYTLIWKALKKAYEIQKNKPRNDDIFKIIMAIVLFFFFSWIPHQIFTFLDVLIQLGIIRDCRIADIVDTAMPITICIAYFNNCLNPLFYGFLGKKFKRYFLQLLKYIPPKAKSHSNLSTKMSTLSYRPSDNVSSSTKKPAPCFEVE
# Thoracic aorta = assay: Induction of vasorelaxation in pre-contracted thoracic aorta of FVB/N mouse; assay type: functional, tissue-based
Ki [1] [nM],half-life at 1 µM [2] [min],half-life at 1 µM [3] [min],efflux ratio at 5 µM [4],Papp A→B at 5 µM [5] [×10⁻⁶ cm/s],half-life at 1 µM [6] [min],Ki [7] [µM],Structure (SMILES),Activity (Thoracic aorta)
96,6.4,6.7,–,–,–,–,CC(C)Cc1cc(-c2cccc(C(=O)Cn3ccnc3C(C)(C)C)c2)c(S(=O)(=O)Nc2nccs2)s1,–
29,3.6,2.3,–,–,–,–,CC(C)Cc1cc(-c2cccc(C(=O)Cn3ccnc3C(C)(C)C)c2)c(S(=O)(=O)Nc2ccc(C(F)(F)F)cn2)s1,–
800,480,56,–,–,–,–,CC(C)Cc1cc(-c2cccc(Cn3ccnc3)c2)c(S(=O)(=O)Nc2nc3ccccc3s2)s1.O=C(O)C(F)(F)F,–
1.7,21,16,–,–,–,–,CC(C)Cc1cc(-c2cccc(C(=O)Cn3ccnc3C(C)(C)C)c2)c(S(=O)(=O)Nc2ncc(F)cn2)s1.O=C(O)C(F)(F)F,–
4.3,2.3,1.2,–,–,–,–,CC(C)Cc1cc(-c2cccc(C(=O)Cn3ccnc3C(C)(C)C)c2)c(S(=O)(=O)Nc2ncc(C#N)cn2)s1.O=C(O)C(F)(F)F,–
300,10,6.7,–,–,–,–,CC(C)Cc1cc(-c2cccc(Cn3ccnc3)c2)c(S(=O)(=O)Nc2nccc(C(F)(F)F)n2)s1.O=C(O)C(F)(F)F,–
2,12,4.8,–,–,–,–,CC(C)Cc1cc(-c2cccc(C(=O)Cn3ccnc3C(C)(C)C)c2)c(S(=O)(=O)Nc2ncc(C(F)(F)F)cn2)s1,–
600,2.3,1.2,–,–,–,–,CC(C)Cc1cc(-c2cccc(C(=O)Cn3ccnc3C(C)(C)C)c2)c(S(=O)(=O)Nc2ccc(C#N)cc2)s1,–
4.9,17,20,77,4.9,77,> 3,CC(C)Cc1cc(-c2cccc(C(=O)Cn3ccnc3C(C)(C)C)c2)c(S(=O)(=O)Nc2ncccn2)s1,Dose-Dependent Effect
–,–,–,–,3.4,–,–,CCCCOC(=O)NS(=O)(=O)c1sc(CC(C)C)cc1-c1cccc(Cn2ccnc2)c1,–
300,23,6.6,–,–,–,–,Cc1nc(NS(=O)(=O)c2sc(CC(C)C)cc2-c2cccc(Cn3ccnc3)c2)ncc1Cl,–
650,210,61,–,–,–,–,CC(C)Cc1cc(-c2cccc(Cn3ccnc3)c2)c(S(=O)(=O)Nc2nccs2)s1,–
100,37,12,–,–,–,–,CC(C)Cc1cc(-c2cccc(Cn3ccnc3)c2)c(S(=O)(=O)Nc2nccc(C#N)n2)s1.O=C(O)C(F)(F)F,–
3.3,11,6.2,–,–,–,–,CC(C)Cc1cc(-c2cccc(C(=O)Cn3ccnc3C(C)(C)C)c2)c(S(=O)(=O)Nc2ncc(Cl)cn2)s1.O=C(O)C(F)(F)F,–
42,160,14,–,–,–,–,CC(C)Cc1cc(-c2cccc(Cn3ccnc3)c2)c(S(=O)(=O)Nc2ncc(Br)cn2)s1,–
–,–,–,32,1.8,–,–,COc1ccc2c(c1OCc1ccccc1)C[C@@H](C(=O)O)N(C(=O)C(c1ccccc1)c1ccccc1)C2 [OLODANRIGAN],–
1100,36,43,–,–,–,–,CC(C)Cc1cc(-c2cccc(Cn3ccnc3)c2)c(S(=O)(=O)Nc2nccc(C(N)=O)n2)s1.O=C(O)C(F)(F)F,–
1.5,11,4.3,–,–,–,–,CC(C)Cc1cc(-c2cccc(C(=O)Cn3ccnc3C(C)(C)C)c2)c(S(=O)(=O)Nc2ncc(Br)cn2)s1,–
